Laboratory results: patent US8420657B2 (Novartis AG, priority 2008, dated 2013)

Tests used:
[1] = target: T1, GST-JAK2(808-1132) (Homo sapiens, UniProt O60674); assay: JAK2 kinase assay (Caliper mobility shift, LabChip 3000); type: biochemical
T1 construct: GST-JAK2(808-1132); purchased Invitrogen (Carlsbad, USA) #4288
Method in brief: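 Recombinant GST-JAK2(808-1132) kinase domain with FITC-labelled JAK3tide peptide substrate and ATP; 60 min at 30 °C, EDTA stop. Substrate/product ratio read by microfluidic mobility shift; compounds at 8 final concentrations, 10 to 0.003 μM.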

[2] = test system: JAK2-dependent nuclear translocation of STAT5-GFP in U-2 OS osteosarcoma cells; assay: STAT5 nuclear translocation assay (Cellomics), rhEpo stimulated U-2 OS STAT5-GFP cells; type: cell-based; settings: Homo sapiens, U2OS; STAT5 translocation pathway
Source text: The medium-throughput (96-well format) cellular automated fluorescence microscopy Cellomics assay can be routinely used to assess the functional activation of Janus Kinases (JAKs), based on the nuclear translocation of their substrate, Signal Transducer and Activator of Transcription (STAT). Nuclear translocation can be monitored either in HT1080 fibrosarcoma cells stably transfected with STAT1 fused to Green Fluorescence Protein (GFP) or in U-2 OS osteosarcoma cells stably transfected with STAT5 fused to Green Fluorescence Protein (GFP). Stimulation of HT1080 cells with interferon-γ (IFN-γ) results in JAK1/JAK2-dependent nuclear translocation of STAT1-GFP, whereas stimulation of U-2 OS cells with recombinant human erythropoietin (rhEpo) results in JAK2-dependent nuclear translocation of STAT5-GFP, both of which can be quantified using the Cellomics Cyto/NucTrans software package. This assay may be used to provide an assessment of the nuclear-cytoplasmic differential (NCD) of STAT-GFP using Hoechst dye to define the boundaries of the nucleus.
U-2 OS osteosarcoma cells may be obtained from ATCC and can be cultured in standard RPMI medium supplemented with 10% FCS and 2 mM L-glutamine. Cells can be stably transfected with STAT5a-GFP using Lipofectamine following the manufacturers' protocol. 24 hours after transfection the medium can be replaced and selected in 400 μg/ml Geneticin. Subsequently, cells can be stably transfected with EpoR using Lipofectamine following the manufacturers' protocol. 24 hours after transfection the medium can be replaced and cells selected in 100 μg/ml Hygromycin B.
Compounds can be dissolved in DMSO to a final stock concentration of 10 mM and stored as aliquots at 4° C. Compounds may be pre-diluted in 100% DMSO at 10 mM, 3 mM 1 mM, 0.3 mM, 0.1 mM, 0.03 mM, 0.01 mM and 0.003 mM. Subsequently, compounds may be diluted in medium and added in 50 μl to the cells. The final compound concentrations tested may be 10 μM, 3 μM 1 μM, 0.3 μM, 0.1 μM, 0.03 μM, 0.01 μM and 0.003 μM and the final DMSO concentration can be 0.1%.
U-2 OS may be seeded at a cell density of 12,000 cells per well in clear-bottom black 96-well Packard View-Plates™. The following day, medium can be removed and replaced with medium containing either the vehicle (DMSO) or increasing concentrations of test compounds for 30 minutes at 37° C. Cells can then be stimulated for 1 hour by adding 10 μl per well of 50 U/ml rhEpo to obtain 5 U/ml of rhEpo as the final concentration. Following treatments, cells can fixed and processed as described above.
The plates can be read on a Cellomics® ArrayscanII automated fluorescence microscope plate reader equipped with a Mercury-Xenon white light illumination source and a Zeiss Axiovert inverted microscope, using the XF100 dichroic/emission filter cube and matching excitation filters, 10× magnification, and a 0.3 numerical aperture objective. Image acquisition and analysis can be performed using a customized protocol based on the ‘NuclearTranslocation’ Bioapplication. For each well, multiple images (fields) can be acquired until a minimum of 1000 cells are counted using two 2 channels: Channel 1 (Hoechst)=focus+nuclear mask, Channel 2 (GFP)=signal quantification in mask areas as outlined below. Nuclei may be first identified based on the Hoechst staining and a mask generated for each nucleus that then serves as a template to generate a circle (eroded inwards by 1 pixel) and a 3 pixel-wide collar-like ring (off-set outwards by 1 pixel), in which the nuclear and cytoplasmic intensity of GFP, respectively, are quantified in the corresponding channel. High content analysis yields numerous measurements per cell and the GFP intensity differential between the nuclear and the cytoplasmic masks may be chosen as a measure of sub-cellular STAT-GFP relocation. The resulting values may be averaged for all cells in the well to return a single measurement plus standard deviation. […]

T1 sequence (O60674 808-1132): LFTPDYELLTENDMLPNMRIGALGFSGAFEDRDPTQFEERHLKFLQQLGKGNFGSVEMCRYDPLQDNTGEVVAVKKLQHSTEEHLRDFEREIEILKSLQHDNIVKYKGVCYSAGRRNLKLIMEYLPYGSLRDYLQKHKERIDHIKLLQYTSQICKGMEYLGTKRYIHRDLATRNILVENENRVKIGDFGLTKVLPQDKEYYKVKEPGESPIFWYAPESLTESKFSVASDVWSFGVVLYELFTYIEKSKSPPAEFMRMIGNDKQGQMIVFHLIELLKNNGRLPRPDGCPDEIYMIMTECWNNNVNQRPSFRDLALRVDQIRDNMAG

| IC50 [1] | IC50 [2] | SMILES |
| --- | --- | --- |
| ≤ 3 nM | 2.8 nM | Cc1ccc(Nc2ncc3ccn(-c4cc(F)c(CN5CCOCC5)c(F)c4)c3n2)cc1CN1CCN(C)CC1 [Example 331, [7-(3,5-Difluoro-4-morpholin-4-ylmethyl-phenyl)-7H-pyrrolo[2,3-d]pyrimidin-2-yl]-[4-methyl-3-(4-methyl-piperazin-1-ylmethyl)-phenyl]-amine] |
| ≤ 3 nM | 2.8 nM | Cc1cc(Nc2ncc3ccn(-c4cc(F)c(CN5CCOCC5)c(F)c4)c3n2)ccc1[C@H]1CCCN1 [Example 346, [7-(3,5-Difluoro-4-morpholin-4-ylmethyl-phenyl)-7H-pyrrolo[2,3-d]pyrimidin-2-yl]-((R)-3-methyl-4-pyrrolidin-2-yl-phenyl)-amine] |
| ≤ 3 nM | 21.8 nM | Fc1cc(-n2ccc3cnc(Nc4ccnc(OC5CCOCC5)c4)nc32)cc(F)c1CN1CCOCC1 [Example 350, [7-(3,5-Difluoro-4-morpholin-4-ylmethyl-phenyl)-7H-pyrrolo[2,3-d]pyrimidin-2-yl]-[2-(tetrahydro-pyran-4-yloxy)-pyridin-4-yl]-amine] |
| 4.3 nM | 1.3 nM | C[C@@H]1CN(c2ccc(Nc3ncc4ccn(-c5ccc(S(=O)(=O)NC(C)(C)C)cc5)c4n3)cn2)C[C@H](C)N1 [Example 351, N-tert-Butyl-4-{2-[6-(cis-3,5-dimethyl-piperazin-1-yl)-pyridin-3-ylamino]-pyrrolo[2,3-d]pyrimidin-7-yl}-benzenesulfonamide] |
| ≤ 3 nM | 22.1 nM | Fc1cc(-n2ccc3cnc(Nc4ccnc(OCCN5CCOCC5)c4)nc32)cc(F)c1CN1CCOCC1 [Example 352, [7-(3,5-Difluoro-4-morpholin-4-yl methyl-phenyl)-7H-pyrrolo[2,3-d]pyrimidin-2-yl]-[2-(2-morpholin-4-yl-ethoxy)-pyridin-4-yl]-amine] |
| 4.9 nM | 17 nM | Cc1ccc(Nc2ncc3ccn(-c4ccc(S(=O)(=O)NC(C)(C)C)cc4)c3n2)cc1CN1CCN(C)CC1 [Example 353, N-tert-Butyl-4-{2-[4-methyl-3-(4-methyl-piperazin-1-ylmethyl)-phenylamino]-pyrrolo[2,3-d]pyrimidin-7-yl}-benzenesulfonamide] |
| 3.7 nM | 5.3 nM | Cc1ccc(Nc2ncc3ccn(-c4cc(F)c(CN5CCOCC5)c(F)c4)c3n2)cc1CN1C[C@@H](C)N[C@@H](C)C1 [Example 355, [7-(3,5-Difluoro-4-morpholin-4-yl methyl-phenyl)-7H-pyrrolo[2,3-d]pyrimidin-2-yl]-[3-(cis-3,5-dimethyl-piperazin-1-ylmethyl)-4-methyl-phenyl]-amine] |
| 7.2 nM | 59 nM | Cc1ccc(Nc2ncc3ccn(-c4cc(F)c(CN5CCOCC5)c(F)c4)c3n2)cc1CN1CCOC2(COC2)C1 [Example 358, [7-(3,5-Difluoro-4-morpholin-4-ylmethyl-phenyl)-7H-pyrrolo[2,3-d]pyrimidin-2-yl]-[3-(2,5-dioxa-8-aza-spiro[3,5]non-8-ylmethyl)-4-methyl-phenyl]-amine] |
| 7.4 nM | 135 nM | Cc1ccc(Nc2ncc3ccn(-c4ccc(C(=O)N5CCOCC5)c(F)c4)c3n2)cc1CN1CCOC2(COC2)C1 [Example 359, (4-{2-[3-(2,5-Dioxa-8-aza-spiro[3,5]non-8-ylmethyl)-4-methyl-phenylamino]-pyrrolo[2,3-d]pyrimidin-7-yl}-2-fluoro-phenyl)-morpholin-4-yl-methanone] |
| 3.3 nM | 7.2 nM | C[C@@H]1CN(c2ccc(Nc3ncc4ccn(-c5cc(F)c(CN6CCOC7(COC7)C6)c(F)c5)c4n3)cn2)C[C@H](C)N1 [Example 360, [6-(cis-3,5-Dimethyl-piperazin-1-yl)-pyridin-3-yl]-{7-[4-(2,5-dioxa-8-aza-spiro[3,5]non-8-ylmethyl)-3,5-difluoro-phenyl]-7H-pyrrolo[2,3-d]pyrimidin-2-yl}-amine] |
| 23 nM | 260 nM | CN1CCN(C(=O)c2cc(Nc3ncc4ccn(-c5cc(F)c(CN6CCOCC6)c(F)c5)c4n3)ccn2)CC1 [Example 361, {4-[7-(3,5-Difluoro-4-morpholin-4-ylmethyl-phenyl)-7H-pyrrolo[2,3-d]pyrimidin-2-ylamino]-pyridin-2-yl}-(4-methyl-piperazin-1-yl)-methanone] |
| 24 nM | 152 nM | O=C(c1cc(Nc2ncc3ccn(-c4cc(F)c(CN5CCOCC5)c(F)c4)c3n2)ccn1)N1CCOC2(COC2)C1 [Example 362, {4-[7-(3,5-Difluoro-4-morpholin-4-ylmethyl-phenyl)-7H-pyrrolo[2,3-d]pyrimidin-2-ylamino]-pyridin-2-yl}-(2,5-dioxa-8-aza-spiro[3.5]non-8-yl)-methanone] |
| 3.2 nM | 11 nM | CC(C)(C)NS(=O)(=O)c1ccc(-n2ccc3cnc(Nc4ccc(OCCN5CCCC5)cc4)nc32)cc1 [Example 363, N-tert-Butyl-4-{2-[4-(2-pyrrolidin-1-yl-ethoxy)-phenylamino]-pyrrolo[2,3-d]pyrimidin-7-yl}-benzenesulfonamide] |
| 4.6 nM | 43 nM | Cc1ccc(Nc2ncc3ccn(-c4cc(F)c(CN5CCOCC5)c(F)c4)c3n2)cc1CN1CCN(C2CC2)CC1 [Example 365, [3-(4-Cyclopropyl-piperazin-1-ylmethyl)-4-methyl-phenyl]-[7-(3,5-difluoro-4-morpholin-4-ylmethyl-phenyl)-7H-pyrrolo[2,3-d]pyrimidin-2-yl]-amine] |
| 8.6 nM | 65 nM | Cc1ccc(Nc2ncc3ccn(-c4ccc(C(=O)N5CCOCC5)c(F)c4)c3n2)cc1CN1CCN(C2CC2)CC1 [Example 366, (4-{2-[3-(4-Cyclopropyl-piperazin-1-ylmethyl)-4-methyl-phenylamino]-pyrrolo[2,3-d]pyrimidin-7-yl}-2-fluoro-phenyl)-morpholin-4-yl-methanone] |
| 8.4 nM | 144 nM | Cc1ccc(Nc2ncc3ccn(-c4ccc(C(=O)N5CCOCC5)c(F)c4)c3n2)cc1CN1C[C@@H](C)N[C@@H](C)C1 [Example 367, (4-{2-[3-(cis-3,5-Dimethyl-piperazin-1-ylmethyl)-4-methyl-phenylamino]-pyrrolo[2,3-d]pyrimidin-7-yl}-2-fluoro-phenyl)-morpholin-4-yl-methanone] |
| ≤ 3 nM | 57 nM | C[C@@H]1CN(c2ccc(Nc3ncc4ccn(-c5ccc(S(N)(=O)=O)cc5)c4n3)cn2)C[C@H](C)N1 [Example 369, 4-{2-[6-(cis-3,5-Dimethyl-piperazin-1-yl)-pyridin-3-ylamino]-pyrrolo[2,3-d]pyrimidin-7-yl}-benzenesulfonamide] |
| ≤ 3 nM | 31.3 nM | Cc1ccc(Nc2ncc3ccn(-c4cc(F)c(CN5CCOCC5)c(F)c4)c3n2)cc1CN1CCN(C=O)CC1 [Example 370, 4-{5-[7-(3,5-Difluoro-4-morpholin-4-ylmethyl-phenyl)-7H-pyrrolo[2,3-d]pyrimidin-2-ylamino]-2-methyl-benzyl}-piperazine-1-carbaldehyde] |
| 13 nM | 135 nM | C[C@@H]1CN(C(=O)c2cc(Nc3ncc4ccn(-c5cc(F)c(CN6CCOCC6)c(F)c5)c4n3)ccn2)C[C@H](C)N1 [Example 371, {4-[7-(3,5-Difluoro-4-morpholin-4-ylmethyl-phenyl)-7H-pyrrolo[2,3-d]pyrimidin-2-ylamino]-pyridin-2-yl}-(cis-3,5-dimethyl-piperazin-1-yl)-methanone] |
